{"source": "patent US10023593B2", "about": "“ALK kinase inhibitor, and preparation method and uses thereof” (BEIJING PEARL BIOTECHNOLOGY LIMITED LIABILITY COMPANY, priority 2014, dated 2018)", "data": [{"biological_target": "cytochrome P450 3A4 (Homo sapiens, UniProt P08684)", "sequence (P08684 whole entry)": "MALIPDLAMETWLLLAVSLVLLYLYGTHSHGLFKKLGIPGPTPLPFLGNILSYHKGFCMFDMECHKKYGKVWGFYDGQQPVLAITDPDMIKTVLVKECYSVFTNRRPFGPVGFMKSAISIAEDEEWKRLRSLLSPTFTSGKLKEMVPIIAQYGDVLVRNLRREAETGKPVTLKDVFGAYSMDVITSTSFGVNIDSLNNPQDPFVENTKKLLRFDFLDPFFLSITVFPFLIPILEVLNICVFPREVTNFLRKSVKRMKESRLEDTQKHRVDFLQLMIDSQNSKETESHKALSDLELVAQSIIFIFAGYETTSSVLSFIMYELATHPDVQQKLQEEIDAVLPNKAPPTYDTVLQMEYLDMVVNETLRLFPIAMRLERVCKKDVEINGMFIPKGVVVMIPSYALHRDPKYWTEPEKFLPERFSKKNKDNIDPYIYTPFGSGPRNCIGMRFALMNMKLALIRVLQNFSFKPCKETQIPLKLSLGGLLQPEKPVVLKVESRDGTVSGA", "test": "Inhibitory activity on cytochrome P450 3A4", "type": "in vitro ADME", "conditions": "no significant inhibition", "units": {"IC50": "µM"}, "values": [{"smiles": "Cc1cc(Nc2ncc(Cl)c(Nc3cn(C)nc3S(=O)(=O)C(C)C)n2)c(OC2CC2)cc1C1CCN(CCO)CC1", "note": "[Final product 133, 2-(4-(4-(5-chloro-4-(3-(isopropylsulfonyl)-1-methyl-1H-pyrazol-4-amino)pyrimidin-2-amino)-5-cyclopropoxy-2-methylphenyl)piperidin-1-yl) ethanol]", "IC50": "> 10"}, {"smiles": "CC(=O)N1CCN([C@H]2CC[C@H](c3cc(OC4CC4)c(Nc4ncc(Cl)c(Nc5cn(C)nc5S(=O)(=O)C(C)C)n4)cc3C)CC2)CC1", "note": "[Final product 204]", "IC50": "> 10"}, {"smiles": "CC(C)CS(=O)(=O)c1nn(C)cc1Nc1nc(Nc2ccc(C3CCN(C)CC3)cc2OC2CC2)ncc1Cl", "note": "[Final product 43]", "IC50": "> 10"}, {"smiles": "CC(C)S(=O)(=O)c1nn(C)cc1Nc1nc(Nc2cc(Cl)c(C3CCN(C)CC3)cc2OC2CC2)ncc1Cl", "note": "[Final product 47]", "IC50": "> 10"}, {"smiles": "Cc1cc(Nc2ncc(Cl)c(Nc3cn(C)nc3S(=O)(=O)C(C)C)n2)c(OC2CC2)cc1C1CCN(CCN(C)C)CC1", "note": "[Final product 146, 5-chloro-N^2-(2-cyclopropoxy-4-(1-(2-(dimethylamino)ethyl)piperidin-4-yl)-5-methylphenyl)-N^4-(3-(isopropylsulfonyl)-1-methyl-1H-pyrazol-4-yl)-pyrimidin-2,4-diamine]", "IC50": "> 10"}, {"smiles": "CC(C)S(=O)(=O)c1nn(C2CC2)cc1Nc1nc(Nc2cc(F)c(C3CCN(C)CC3)cc2OC2CC2)ncc1Cl", "note": "[Final product 46]", "IC50": "> 10"}, {"smiles": "CC(=O)N1CCC(c2cc(OC3CC3)c(Nc3ncc(Cl)c(Nc4cn(C)nc4S(=O)(=O)C(C)C)n3)cc2C)CC1", "note": "[Final product 160, 1-acetyl-4-(4-(5-chloro-4-(3-(isopropylsulfonyl)-1-methyl-1H-pyrazol-4-amino)pyrimidin-2-amine)-5-cyclopropoxy-2-methylphenyl)piperidine]", "IC50": "> 10"}, {"smiles": "Cc1cc(Nc2ncc(Cl)c(Nc3cn(C)nc3S(=O)(=O)C(C)C)n2)c(OC2CC2)cc1C1CCN(C(=O)C(F)(F)F)CC1", "note": "[Final product 161, 1-trifluoroacetyl-4-(4-(5-chloro-4-(3-(isopropylsulfonyl)-1-methyl-1H-pyrazol-4-amino)pyrimidin-2-amine)-5-cyclopropoxy-2-methylphenyl)piperidine]", "IC50": "> 10"}, {"smiles": "CC(C)S(=O)(=O)c1nn(C)cc1Nc1nc(Nc2ccc(C3CCN(C)CC3)cc2OC2CC2)ncc1Cl", "note": "[Final product 40]", "IC50": "> 10"}, {"smiles": "Cc1cc(Nc2ncc(Cl)c(Nc3cn(C)nc3S(=O)(=O)C(C)C)n2)c(OC2CC2)cc1C1CCN(C2COC2)CC1", "note": "[Final product 156]", "IC50": "> 10"}, {"smiles": "Cc1cc(Nc2ncc(Cl)c(Nc3cn(C)nc3S(=O)(=O)C(C)C)n2)c(OC2CC2)cc1C1CC(C)N(C)C(C)C1", "note": "(stereo not shown) [Final product 95]", "IC50": "> 10"}, {"smiles": "Cc1cc(Nc2ncc(Cl)c(Nc3cn(C)nc3S(=O)(=O)C(C)C)n2)c(OC2CC2)cc1C1CCN(S(C)(=O)=O)CC1", "note": "[Final product 167, 5-chloro-N^2-(2-cyclopropoxy-5-methyl-4-(1-methanesulfonyl-piperidin-4-yl)-phenyl)-N^4-(3-(isopropylsulfonyl)-1-methyl-1H-pyrazol-4-yl)pyrimidin-2,4-diamine]", "IC50": "> 10"}, {"smiles": "Cc1cc(Nc2ncc(Cl)c(Nc3cn(C)nc3S(=O)(=O)C(C)C)n2)c(OC2CC2)cc1C1CCN(C(=O)CC#N)CC1", "note": "[Final product 166, 1-cyano acetyl-4-(4-(5-chloro-4-(3-(isopropylsulfonyl)-1-methyl-1H-pyrazol-4-amino)pyrimidin-2-amine)-5-cyclopropoxy-2-methylphenyl)piperidine]", "IC50": "> 10"}]}]}
